# Experiments:
# Assay type in all cases: cell-based
# [1] = molecular target: T1, M1 muscarinic receptor (Homo sapiens, UniProt P11229); test: Functional mobilization of intracellular calcium (FLIPR) in CHO cells expressing M1; conditions: for EC50: CHO cells expressing M1, FLIPR calcium; for Emax: CHO, 100% = maximum response obtained with the Carbachol control, read-out: M1 Efficacy
# T1 construct: expressed in transfected cells; host or cells: CHO (M1-CHO)
# T1 sequence (P11229 1-460): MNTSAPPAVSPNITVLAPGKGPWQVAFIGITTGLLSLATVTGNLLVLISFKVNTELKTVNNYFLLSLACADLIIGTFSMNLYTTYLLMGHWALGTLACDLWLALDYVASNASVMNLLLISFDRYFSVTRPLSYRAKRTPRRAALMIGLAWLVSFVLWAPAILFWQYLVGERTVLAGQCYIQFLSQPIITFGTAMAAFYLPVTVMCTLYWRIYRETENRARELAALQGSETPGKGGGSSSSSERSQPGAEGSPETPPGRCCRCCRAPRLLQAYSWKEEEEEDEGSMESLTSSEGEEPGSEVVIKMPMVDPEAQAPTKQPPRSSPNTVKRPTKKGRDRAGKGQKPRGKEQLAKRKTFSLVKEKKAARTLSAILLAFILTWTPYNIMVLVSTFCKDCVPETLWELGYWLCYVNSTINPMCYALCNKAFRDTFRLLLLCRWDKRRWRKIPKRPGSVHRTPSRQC
# In short: (§1)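 Calcium flux is read on FLIPR over 60 sec at 488/540 nm in muscarinic-receptor CHO lines. Antagonist mode adds carbachol at EC80 after 15 min compound preincubation or with simultaneous co-application. Agonist mode adds compound alone. Cells carry Fluo-3 or Calcium 3 dye in probenecid-containing pH 7.4 buffer, 0.5% DMSO final.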
# [2] = molecular target: T2, M2 muscarinic receptor (Homo sapiens, UniProt P08172); test: Functional mobilization of intracellular calcium (FLIPR) in CHO cells expressing M2; conditions: for EC50: CHO cells expressing M2, FLIPR calcium; for Emax: CHO, 100% = maximum response obtained with the Carbachol control, read-out: M2 Efficacy
# T2 construct: expressed in transfected cells; host or cells: CHO (M2-CHO)
# T2 sequence (P08172 1-466): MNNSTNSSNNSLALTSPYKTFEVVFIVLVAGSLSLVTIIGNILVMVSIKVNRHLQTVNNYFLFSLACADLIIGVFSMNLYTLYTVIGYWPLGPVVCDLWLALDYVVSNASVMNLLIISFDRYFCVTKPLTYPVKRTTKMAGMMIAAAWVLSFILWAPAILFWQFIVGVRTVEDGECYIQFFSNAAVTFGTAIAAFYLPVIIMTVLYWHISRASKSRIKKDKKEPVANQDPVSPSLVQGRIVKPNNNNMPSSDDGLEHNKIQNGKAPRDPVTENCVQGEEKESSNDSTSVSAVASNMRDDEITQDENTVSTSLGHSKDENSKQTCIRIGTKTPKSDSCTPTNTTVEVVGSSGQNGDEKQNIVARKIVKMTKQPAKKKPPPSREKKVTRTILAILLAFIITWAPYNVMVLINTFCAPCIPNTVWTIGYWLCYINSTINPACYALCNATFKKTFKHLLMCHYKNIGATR
# In short: as §1
# [3] = molecular target: T3, M3 muscarinic receptor (Homo sapiens, UniProt P20309); test: Functional mobilization of intracellular calcium (FLIPR) in CHO cells expressing M3; conditions: for EC50: CHO cells expressing M3, FLIPR calcium; for Emax: CHO, 100% = maximum response obtained with the Carbachol control, read-out: M3 Efficacy
# T3 construct: expressed in transfected cells; host or cells: CHO (M3-CHO)
# T3 sequence (P20309 whole entry): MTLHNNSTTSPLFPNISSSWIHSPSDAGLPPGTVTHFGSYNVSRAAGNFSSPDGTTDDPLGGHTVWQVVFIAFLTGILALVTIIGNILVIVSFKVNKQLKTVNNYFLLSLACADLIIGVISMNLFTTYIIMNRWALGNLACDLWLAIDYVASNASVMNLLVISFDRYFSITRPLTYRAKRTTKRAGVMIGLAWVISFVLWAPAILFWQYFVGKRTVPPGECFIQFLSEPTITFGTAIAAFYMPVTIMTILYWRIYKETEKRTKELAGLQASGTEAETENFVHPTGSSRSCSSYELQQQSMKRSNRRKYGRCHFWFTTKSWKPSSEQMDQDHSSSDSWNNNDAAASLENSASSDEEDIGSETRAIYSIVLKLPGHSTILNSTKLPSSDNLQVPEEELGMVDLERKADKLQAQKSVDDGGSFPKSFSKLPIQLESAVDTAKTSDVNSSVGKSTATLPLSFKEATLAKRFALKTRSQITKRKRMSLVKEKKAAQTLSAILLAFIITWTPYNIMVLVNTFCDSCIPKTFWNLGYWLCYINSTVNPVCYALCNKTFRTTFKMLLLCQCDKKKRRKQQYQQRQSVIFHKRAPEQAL
# In short: as §1
# [4] = molecular target: T4, M4 muscarinic receptor (Homo sapiens, UniProt P08173); test: Functional mobilization of intracellular calcium (FLIPR) in CHO cells expressing M4; conditions: for EC50: CHO cells expressing M4, FLIPR calcium; for Emax: CHO, 100% = maximum response obtained with the Carbachol control, read-out: M4 Efficacy
# T4 construct: expressed in transfected cells; host or cells: CHO (M4-CHO)
# T4 sequence (P08173 1-479): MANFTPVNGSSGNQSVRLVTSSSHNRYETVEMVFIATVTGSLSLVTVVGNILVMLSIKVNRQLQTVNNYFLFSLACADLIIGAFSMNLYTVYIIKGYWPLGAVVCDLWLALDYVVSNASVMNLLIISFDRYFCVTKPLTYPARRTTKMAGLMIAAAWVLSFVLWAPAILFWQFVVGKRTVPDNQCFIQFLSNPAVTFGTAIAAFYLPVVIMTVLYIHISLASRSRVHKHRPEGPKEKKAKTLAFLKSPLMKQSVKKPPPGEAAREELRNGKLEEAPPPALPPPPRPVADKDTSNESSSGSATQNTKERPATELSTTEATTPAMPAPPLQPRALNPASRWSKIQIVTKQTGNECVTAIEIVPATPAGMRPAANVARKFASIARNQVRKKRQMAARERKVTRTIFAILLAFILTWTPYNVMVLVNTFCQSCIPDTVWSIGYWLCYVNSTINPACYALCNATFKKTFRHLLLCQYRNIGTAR
# In short: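 Recombinant CHO cells loaded with Fluo-3 AM or Calcium 3 dye in pH 7.4 buffer containing 1 mM probenecid, with 0.5% final DMSO. For agonism, compound is added directly. For inhibition, it is preincubated 15 min, or co-applied, before carbachol at EC80. FLIPR fluorescence (ex 488, em 540 nm) is recorded for 60 s.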
SMILES,EC50 [1] [µM],Emax [1] [%],EC50 [2] [µM],Emax [2] [%],EC50 [3] [µM],Emax [3] [%],EC50 [4] [µM],Emax [4] [%]
CC(C)(C)CCN1CCC2(CC[C@H](NC(=O)C3CC3)c3ccccc32)CC1 [compound 158],< 2,25 to 100,< 2,25 to 100,> 5,< 25,< 2,25 to 100
CC(=O)N[C@H]1CCC2(CCN(CCC(C)C)CC2)c2ccccc21 [compound 159],< 2,25 to 100,> 5,< 25,> 5,< 25,< 2,25 to 100
CC(=O)N1CCC[C@@H]1C(=O)N[C@H]1CCC2(CCN(CCC(C)(C)C)CC2)c2ccccc21 [compound 160],< 2,25 to 100,> 5,< 25,> 5,< 25,< 2,25 to 100
CN([C@H]1CCC2(CCN(CCC(C)(C)C)CC2)c2ccccc21)S(C)(=O)=O [compound 161],< 2,25 to 100,> 5,< 25,> 5,< 25,< 2,25 to 100
CC(=O)N[C@H](C)C(=O)N[C@@H]1CCC2(CCN(CCC(C)(C)C)CC2)c2ccccc21 [compound 162],> 5,25 to 100,> 5,< 25,> 5,< 25,< 2,25 to 100
CC(=O)N[C@H](C)C(=O)N[C@@H]1CCC2(CCN(CCC(C)(C)C)CC2)c2cc(F)ccc21 [compound 163],< 2,25 to 100,< 2,25 to 100,> 5,< 25,< 2,25 to 100
CCC(=O)N(C)[C@H]1CCC2(CCN(CCC(C)(C)C)CC2)c2ccccc21 [compound 164],< 2,25 to 100,> 5,< 25,> 5,< 25,< 2,25 to 100
Cn1cnc(C(=O)N[C@H]2CCC3(CCN(CCC(C)(C)C)CC3)c3cc(F)ccc32)c1 [compound 165],< 2,25 to 100,< 2,25 to 100,> 5,< 25,< 2,25 to 100
CCN(C(=O)C1CCN(C(=O)OC)CC1)[C@H]1CCC2(CCN(CCC(C)(C)C)CC2)c2ccccc21 [compound 166],> 5,25 to 100,> 5,< 25,> 5,< 25,< 2,25 to 100
CC(C)[C@@H](C(=O)N[C@H]1CCC2(CCN(CCC(C)(C)C)CC2)c2ccccc21)N1CCCC1=O [compound 167],< 2,25 to 100,> 5,< 25,> 5,< 25,< 2,25 to 100
CC(C)(C)CCN1CCC2(CC[C@@H](N3CCCC3=O)c3ccc(F)cc32)CC1 [compound 168],2 to 5,< 25,> 5,< 25,> 5,< 25,< 2,25 to 100

# — patent publication US8003660B2, “Modulators of muscarinic receptors” (Vertex Pharmaceuticals Incorporated, priority 2006, dated 2011)
